# Reference: patent US8293774B2, “Optically active (R)-aryloxypropionic acid amides and herbicidal composition comprising same” (Kyung Nong Corporation, priority 2007, dated 2012)
# Experiments:
# Test in all cases: Weed control test, foliage treatment (Test Example 1, Table 7)
# [1] = test system: GLXMA (Glycine max(L.) MERR, soy bean); details: in vivo
# Description: (§1) Seeds of rice, wheat, soy bean, barley, corn, common sorgum, barnyard grass, large crabgrass, creek grass, green foxtail and fall panicum were placed in sandy loam in 600 cm^2 pots and covered with soil. After keeping the pots in a greenhouse at 20 to 30° C. allowing growth of the plants to the 3-leaf stage of the barnyard grass, 2,000 l/ha of an emulsion obtained by diluting with water a mixture of 1 part by weight of a test compound, 5 parts by weight of acetone and 1 part by weight of an emulsifying agent (Tween 80, Junsei) was applied to the surface of the foliage of the plants. The plant damage at 10 days and 20 days after the foliage treatment was visually evaluated from the level of 1 to 100% by comparison with the untreated control: […]
# [2] = test system: ORYSA (Oryza sativa cv. Dongjin, rice); details: in vivo
# Description: as §1
# [3] = test system: HORVU (Hordeum vulgare L., barley); details: in vivo
# Description: as §1
# [4] = test system: TRZAW (Tritium aestivum L., wheat); details: in vivo
# Description: as §1
# [5] = test system: ARTHIS (Arthraxon hispidus (Thunb.) Makino, creek grass); type: in vivo; details: Arthraxon hispidus, foliar, read-out: Plant damage (herbicidal activity), visually evaluated, ARTHIS; for pest or weed control at 25 g/ha: 0.025 kg/ha; for pest or weed control at 100 g/ha: 0.1 kg/ha; for pest or weed control at 200 g/ha: 0.2 kg/ha
# Description: as §1
# [6] = test system: SETVIR (Setaria viridis (L.) Beauv, green foxtail); type: in vivo; details: Setaria viridis, foliar, read-out: Plant damage (herbicidal activity), visually evaluated, SETVIR; for pest or weed control at 25 g/ha: 0.025 kg/ha; for pest or weed control at 100 g/ha: 0.1 kg/ha; for pest or weed control at 200 g/ha: 0.2 kg/ha
# Description: as §1
# [7] = test system: ECHOG (Echinoch crus-galli Beauv. var. caudata Kitagawa, barnyard grass); type: in vivo; details: Echinochloa crus-galli, foliar, 3-leaf stage, read-out: Plant damage (herbicidal activity), visually evaluated, ECHOG; for pest or weed control at 25 g/ha: 0.025 kg/ha; for pest or weed control at 100 g/ha: 0.1 kg/ha; for pest or weed control at 200 g/ha: 0.2 kg/ha
# Description: as §1
# [8] = test system: ZEAMX (Zea mays L., corn); type: in vivo; details: Zea mays, foliar, read-out: Plant damage (herbicidal activity), visually evaluated, ZEAMX; for plant injury at 25 g/ha: 0.025 kg/ha; for plant injury at 100 g/ha: 0.1 kg/ha; for plant injury at 200 g/ha: 0.2 kg/ha
# Description: as §1
# [9] = test system: DIGSA (Digitaria Sanguinalis (L.) SCOP, large crabgrass); type: in vivo; details: Digitaria sanguinalis, foliar, read-out: Plant damage (herbicidal activity), visually evaluated, DIGSA; for pest or weed control at 25 g/ha: 0.025 kg/ha; for pest or weed control at 100 g/ha: 0.1 kg/ha; for pest or weed control at 200 g/ha: 0.2 kg/ha
# Description: as §1
# [10] = test system: PANDI (Panium dichotomiflorum Michx, fall panicum); type: in vivo; details: Panicum dichotomiflorum, foliar, read-out: Plant damage (herbicidal activity), visually evaluated, PANDI; for pest or weed control at 25 g/ha: 0.025 kg/ha; for pest or weed control at 100 g/ha: 0.1 kg/ha; for pest or weed control at 200 g/ha: 0.2 kg/ha
# Description: as §1
# [11] = test system: SORBI (Andropogon sorghum, common sorgum); type: in vivo; details: Sorghum bicolor, foliar, read-out: Plant damage (herbicidal activity), visually evaluated, SORBI; for pest or weed control at 25 g/ha: 0.025 kg/ha; for pest or weed control at 100 g/ha: 0.1 kg/ha; for pest or weed control at 200 g/ha: 0.2 kg/ha
# Description: as §1
compound,measurement,setting,value
"Cc1ccc2nc(N(C)C(=O)[C@@H](C)Oc3ccc(Oc4ccc(C#N)cc4F)cc3)sc2c1 [Example 26, (R)-2-[4-(4-cyano-2-fluorophenoxy)phenoxy]propionic acid-N-(6-methyl-2-benzothiazolyl)-N-methyl amide]","Plant damage (herbicidal activity), visually evaluated, GLXMA",[1],0%
same,"Plant damage (herbicidal activity), visually evaluated, ORYSA",[2],0%
same,"Plant damage (herbicidal activity), visually evaluated, HORVU",[3],0%
same,"Plant damage (herbicidal activity), visually evaluated, TRZAW",[4],0%
same,pest or weed control at 25 g/ha,[5],0%
same,pest or weed control at 100 g/ha,[5],0%
same,pest or weed control at 200 g/ha,[5],0%
same,pest or weed control at 25 g/ha,[6],0%
same,pest or weed control at 100 g/ha,[6],0%
same,pest or weed control at 200 g/ha,[6],0%
same,pest or weed control at 25 g/ha,[7],0%
same,pest or weed control at 100 g/ha,[7],0%
same,pest or weed control at 200 g/ha,[7],0%
same,plant injury at 25 g/ha,[8],10%
same,plant injury at 100 g/ha,[8],10%
same,plant injury at 200 g/ha,[8],30%
same,pest or weed control at 25 g/ha,[9],0%
same,pest or weed control at 100 g/ha,[9],0%
same,pest or weed control at 200 g/ha,[9],0%
same,pest or weed control at 25 g/ha,[10],0%
same,pest or weed control at 100 g/ha,[10],0%
same,pest or weed control at 200 g/ha,[10],0%
same,pest or weed control at 25 g/ha,[11],10%
same,pest or weed control at 100 g/ha,[11],20%
same,pest or weed control at 200 g/ha,[11],35%
"Cc1cc(NC(=O)[C@@H](C)Oc2ccc(Oc3ccc(C#N)cc3F)cc2)n(C)n1 [Example 29, (R)-2-[4-(4-cyano-2-fluorophenoxy)phenoxy]propionic acid-N-(1,3-dimethyl-5-pyrazolyl)amide]","Plant damage (herbicidal activity), visually evaluated, GLXMA",[1],0%
same,"Plant damage (herbicidal activity), visually evaluated, ORYSA",[2],0%
same,"Plant damage (herbicidal activity), visually evaluated, HORVU",[3],0%
same,"Plant damage (herbicidal activity), visually evaluated, TRZAW",[4],0%
same,pest or weed control at 25 g/ha,[5],0%
same,pest or weed control at 100 g/ha,[5],0%
same,pest or weed control at 200 g/ha,[5],10%
same,pest or weed control at 25 g/ha,[6],0%
same,pest or weed control at 100 g/ha,[6],0%
same,pest or weed control at 200 g/ha,[6],20%
same,pest or weed control at 25 g/ha,[7],20%
same,pest or weed control at 100 g/ha,[7],70%
same,pest or weed control at 200 g/ha,[7],90%
same,plant injury at 25 g/ha,[8],0%
same,plant injury at 100 g/ha,[8],5%
same,plant injury at 200 g/ha,[8],30%
same,pest or weed control at 25 g/ha,[9],0%
same,pest or weed control at 100 g/ha,[9],20%
same,pest or weed control at 200 g/ha,[9],90%
same,pest or weed control at 25 g/ha,[10],0%
same,pest or weed control at 100 g/ha,[10],0%
same,pest or weed control at 200 g/ha,[10],10%
same,pest or weed control at 25 g/ha,[11],0%
same,pest or weed control at 100 g/ha,[11],20%
same,pest or weed control at 200 g/ha,[11],50%
"C[C@@H](Oc1ccc(Oc2ccc(C#N)cc2F)cc1)C(=O)Nc1nccs1 [Example 31, (R)-2-[4-(4-cyano-2-fluorophenoxy)phenoxy]propionic acid-N-(2-thiazolyl)amide]","Plant damage (herbicidal activity), visually evaluated, GLXMA",[1],0%
same,"Plant damage (herbicidal activity), visually evaluated, ORYSA",[2],0%
same,"Plant damage (herbicidal activity), visually evaluated, HORVU",[3],0%
same,"Plant damage (herbicidal activity), visually evaluated, TRZAW",[4],0%
same,pest or weed control at 25 g/ha,[5],0%
same,pest or weed control at 100 g/ha,[5],70%
same,pest or weed control at 200 g/ha,[5],70%
same,pest or weed control at 25 g/ha,[6],0%
same,pest or weed control at 100 g/ha,[6],70%
same,pest or weed control at 200 g/ha,[6],70%
same,pest or weed control at 25 g/ha,[7],0%
same,pest or weed control at 100 g/ha,[7],50%
same,pest or weed control at 200 g/ha,[7],90%
same,plant injury at 25 g/ha,[8],20%
same,plant injury at 100 g/ha,[8],90%
same,plant injury at 200 g/ha,[8],90%
same,pest or weed control at 25 g/ha,[9],0%
same,pest or weed control at 100 g/ha,[9],20%
same,pest or weed control at 200 g/ha,[9],70%
same,pest or weed control at 25 g/ha,[10],0%
same,pest or weed control at 100 g/ha,[10],20%
same,pest or weed control at 200 g/ha,[10],20%
same,pest or weed control at 25 g/ha,[11],0%
same,pest or weed control at 100 g/ha,[11],20%
same,pest or weed control at 200 g/ha,[11],50%
"C[C@@H](Oc1ccc(Oc2ccc(C#N)cc2F)cc1)C(=O)Nc1cnccn1 [Example 35, (R)-2-[4-(4-cyano-2-fluorophenoxy)phenoxy]propionic acid-N-(2-pyrazinyl)amide]","Plant damage (herbicidal activity), visually evaluated, GLXMA",[1],0%
same,"Plant damage (herbicidal activity), visually evaluated, ORYSA",[2],0%
same,"Plant damage (herbicidal activity), visually evaluated, HORVU",[3],0%
same,"Plant damage (herbicidal activity), visually evaluated, TRZAW",[4],0%
same,pest or weed control at 25 g/ha,[5],0%
same,pest or weed control at 100 g/ha,[5],10%
same,pest or weed control at 200 g/ha,[5],30%
same,pest or weed control at 25 g/ha,[6],0%
same,pest or weed control at 100 g/ha,[6],30%
same,pest or weed control at 200 g/ha,[6],50%
same,pest or weed control at 25 g/ha,[7],0%
same,pest or weed control at 100 g/ha,[7],10%
same,pest or weed control at 200 g/ha,[7],30%
same,plant injury at 25 g/ha,[8],0%
same,plant injury at 100 g/ha,[8],20%
same,plant injury at 200 g/ha,[8],30%
same,pest or weed control at 25 g/ha,[9],10%
same,pest or weed control at 100 g/ha,[9],40%
same,pest or weed control at 200 g/ha,[9],60%
same,pest or weed control at 25 g/ha,[10],0%
same,pest or weed control at 100 g/ha,[10],0%
same,pest or weed control at 200 g/ha,[10],30%
same,pest or weed control at 25 g/ha,[11],20%
same,pest or weed control at 100 g/ha,[11],65%
same,pest or weed control at 200 g/ha,[11],80%
"C[C@@H](Oc1ccc(OC(F)=Cc2ccccc2)cc1)C(=O)N(C)c1ccccc1F [Example 37, (R)-2-[4-(1-fluoro-2-phenylvinyloxy)phenoxy]propionic acid-N-(2-fluorophenyl)-N-methyl amide]","Plant damage (herbicidal activity), visually evaluated, GLXMA",[1],0%
same,"Plant damage (herbicidal activity), visually evaluated, ORYSA",[2],0%
same,"Plant damage (herbicidal activity), visually evaluated, HORVU",[3],0%
same,"Plant damage (herbicidal activity), visually evaluated, TRZAW",[4],0%
same,pest or weed control at 25 g/ha,[5],0%
same,pest or weed control at 100 g/ha,[5],0%
same,pest or weed control at 200 g/ha,[5],10%
same,pest or weed control at 25 g/ha,[6],0%
same,pest or weed control at 100 g/ha,[6],0%
same,pest or weed control at 200 g/ha,[6],20%
same,pest or weed control at 25 g/ha,[7],20%
same,pest or weed control at 100 g/ha,[7],70%
same,pest or weed control at 200 g/ha,[7],90%
same,plant injury at 25 g/ha,[8],0%
same,plant injury at 100 g/ha,[8],0%
same,plant injury at 200 g/ha,[8],30%
same,pest or weed control at 25 g/ha,[9],0%
same,pest or weed control at 100 g/ha,[9],20%
same,pest or weed control at 200 g/ha,[9],90%
same,pest or weed control at 25 g/ha,[10],0%
same,pest or weed control at 100 g/ha,[10],0%
same,pest or weed control at 200 g/ha,[10],10%
same,pest or weed control at 25 g/ha,[11],0%
same,pest or weed control at 100 g/ha,[11],20%
same,pest or weed control at 200 g/ha,[11],20%
"C[C@@H](Oc1ccc(C(F)=C(c2ccc(F)cc2)C(F)(F)F)cc1)C(=O)Nc1ccccc1F [Example 40, (R)-2-[4-(1,3,3,3-tetrafluoro-2-(4-fluorophenyl)prop-1-enyl)phenoxy]propionic acid-N-(2-fluorophenyl)amide]","Plant damage (herbicidal activity), visually evaluated, GLXMA",[1],0%
same,"Plant damage (herbicidal activity), visually evaluated, ORYSA",[2],0%
same,"Plant damage (herbicidal activity), visually evaluated, HORVU",[3],0%
same,"Plant damage (herbicidal activity), visually evaluated, TRZAW",[4],0%
same,pest or weed control at 25 g/ha,[5],0%
same,pest or weed control at 100 g/ha,[5],0%
same,pest or weed control at 200 g/ha,[5],10%
same,pest or weed control at 25 g/ha,[6],0%
same,pest or weed control at 100 g/ha,[6],0%
same,pest or weed control at 200 g/ha,[6],20%
same,pest or weed control at 25 g/ha,[7],20%
same,pest or weed control at 100 g/ha,[7],70%
same,pest or weed control at 200 g/ha,[7],90%
same,plant injury at 25 g/ha,[8],90%
same,plant injury at 100 g/ha,[8],100%
same,plant injury at 200 g/ha,[8],100%
same,pest or weed control at 25 g/ha,[9],70%
same,pest or weed control at 100 g/ha,[9],90%
same,pest or weed control at 200 g/ha,[9],90%
same,pest or weed control at 25 g/ha,[10],0%
same,pest or weed control at 100 g/ha,[10],0%
same,pest or weed control at 200 g/ha,[10],10%
same,pest or weed control at 25 g/ha,[11],0%
same,pest or weed control at 100 g/ha,[11],20%
same,pest or weed control at 200 g/ha,[11],50%
